Series [1] deals with mouse hot-plate test (thermal stimulus, 56° C.). The series can be described thus: mouse hot-plate test. The conditions noted are these: for mean increase in reaction time: female mice, hot plate at 56° C. It counts as in vivo, mice. How it is done: As noted above, the compound of the formula I has analgesic activity in warm-blooded animals. […] This test is carried out as follows. Groups of three female mice each weighing 22 to 25g. are used to test each compound. Each mouse is placed on a heated thermostatically-controlled copper surface at 56° C., and the time taken to react to the thermal stimulus (for example by licking its hind paws) is recorded. Normal reaction times are in the range of 3 to 5 seconds.
Each of the three mice is then dosed intravenously with 100 mg./kg. of a solution of the test compound. At 5, 10 and 30 minutes after dosing, each mouse is again placed on the hot plate and its reaction time determined. […] In this circumstance the compound is regarded as having maximum activity at this dose.
A compound producing a mean increase in reaction time of at least three seconds is regarded as active. An active compound is then retested at lower doses.

Series [2] deals with cat. To be noted: injected directly into the 3rd ventricle of the cat; cited from earlier work.

Square brackets hold non-standard residues; d marks the D form. Peptide text beside a SMILES is read from it.

As to `CC[C@H](C)[C@H](NC(=O)[C@H](C)NC(=O)[C@H](CC(N)=O)NC(=O)[C@H](CCCCN)NC(=O)[C@H](Cc1ccccc1)NC(=O)[C@H](CC(C)C)NC(=O)[C@@H](NC(=O)[C@@H](NC(=O)[C@H](CC(C)C)NC(=O)[C@@H]1CCCN1C(=O)[C@@H](NC(=O)[C@H](CCC(N)=O)NC(=O)[C@H](CO)NC(=O)[C@H](CCCCN)NC(=O)[C@H](CCC(=O)O)NC(=O)[C@H](CO)NC(=O)[C@@H](NC(=O)[C@H](CC(C)C)NC(=O)[C@H](Cc1ccccc1)NC(=O)CNC(=O)[C@@H](C)NC(=O)[C@@H](N)Cc1ccc(O)cc1)[C@@H](C)O)[C@@H](C)O)C(C)C)[C@@H](C)O)C(=O)N[C@H](C(=O)N[C@@H](CCCCN)C(=O)N[C@@H](CC(N)=O)C(=O)N[C@@H](C)C(=O)N[C@@H](Cc1c[nH]cn1)C(=O)N[C@@H](CCCCN)C(=O)N[C@@H](CCCCN)C(=O)NCC(=O)N[C@@H](CCC(N)=O)C(=O)O)C(C)C` [Example] (H-Y[dA]GFLTSEKSQTPLVTLFKNAIVKNAHKKGQ-OH), the “mean increase in reaction time” value in series [1] (intravenous dose of 100 mg./kg.) was 15 s; in series [1] (intravenous, 25 mg./kg.) it was 6 s. In addition, the “duration of analgesic effect” value in series [1] (mice, intravenous, 100 mg./kg.) is reported as “at least 3 hours”. The signs of toxicity entry in series [1] (mice, intravenous, 100 mg./kg.) is given as “no obvious signs of toxicity”.

Consider “β-endorphin: residues 61-91 of the naturally-occurring lipolytic polypeptide hormone lipotropin (C-fragment of lipotropin) (YGGFMTSEKSQTPLVTLFKNAIIKNAYKKGE; Beta-endorphin; UniProt P01189 237-267, looked up)”, for which, in series [2], the analgesic properties entry is listed as “possesses analgesic properties”.

(Values after patent publication US4320117A, “Polypeptide” (Imperial Chemical Industries Limited, priority 1976, dated 1982).)
